{"source": "paper PMC12122562", "about": "“Phase 1 studies of the indenoisoquinolines LMP776 and LMP744 in patients with solid tumors and lymphomas” (Cancer Chemotherapy and Pharmacology, 2025)", "test_system": "patients with advanced, refractory solid tumors or lymphomas", "assay": "Phase 1 trial of LMP744 (NCT03030417): safety, MTD, adverse events (CTCAE v4.03/v5.0)", "format": "in vivo, human", "excerpt": "The primary objectives of each study included establishing safety, tolerability, MTD, and recommended phase 2 dose (RP2D) of LMP776 and LMP744 as single agents. The LMP744 study included evaluation of tumor pharmacodynamics as an exploratory objective. Both trials were opened at the National Cancer Institute’s (NCI) Developmental Therapeutics Clinic, and the LMP744 trial was also opened at the University of Pittsburgh Hillman Cancer Center. Both trials used an accelerated dose escalation designs (Simon design 4 for LMP776, Simon design 3 for LMP744) to determine the MTD [30]. Dose levels are listed in Supplementary Table 1. Once the MTD was determined, additional patients were enrolled at that DL in an expansion cohort to evaluate pharmacodynamic changes as described below. LMP776 and LMP744 were administered intravenously through a central line via a 1-h infusion on days 1–5 (QDx5) in 28-day cycles. Both agents were supplied by the NCI Division of Cancer Treatment and Diagnosis (DCTD). The studies were approved by the NIH Institutional Review Board and conducted in accordance with the Declaration of Helsinki.\nPatients were enrolled in either NCT01051635 evaluating LMP776 or NCT03030417 evaluating LMP744; these trials were conducted sequentially. Both trials required that patients be ≥ 18 years of age with solid tumors or lymphomas refractory to other treatments. Patients were required to have adequate performance status (Eastern Cooperative Oncology Group [ECOG] performance status ≤ 2), bone marrow function, and organ function as described in the Supplementary Methods. Patients in expansion phases at the MTD were required to have disease amenable to biopsy collection and be willing to undergo research biopsies. All patients provided written informed consent.\nTumor responses were evaluated by serial CT scans according to RECIST v1.1 criteria. CT scans were performed every other cycle during the first year, then every 3 cycles after the first year. Toxicities associated with LMP776 were evaluated according to criteria specified in CTCAE version 4.0; toxicities associated with LMP744 were evaluated according to the criteria specified in CTCAE version 4.03 (on or before March 31, 2018) or version 5.0 (on or after April 1, 2018). Criteria for all versions can be found at https://ctep.cancer.gov/protocolDevelopment/electronic_applications/ctc.htm. Any patient who received a dose of either agent was considered eligible for toxicity evaluation.", "key": {"[1]": {"settings": "all DLs, highest grade per patient"}}, "note": "Where “and” joins values, the source holds several entries; their conditions need not be identical. Equal values may be shown once. Entries after “also recorded” stand apart in the source; their conditions may differ.", "data": [{"smiles": "COc1cc2c3c(n(CCCNCCO)c(=O)c2cc1OC)-c1cc2c(cc1C3=O)OCO2", "note": "[LMP744]", "values": [{"measurement": "Grade 3 non-hematologic DLTs", "setting": "DL7 (260 mg/m^2/day)", "result": "elevated ALT, AST, and GGT in one patient; also recorded: nausea, vomiting, and dehydration"}, {"measurement": "Maximum tolerated dose (MTD)", "setting": "IV QDx5, 28-day cycles (DL6)", "result": 190, "unit": "mg/m^2/day"}, {"measurement": "Anemia, grade ≥ 2, prevalence", "setting": "across all DLs", "result": 36, "unit": "%"}, {"measurement": "Fatigue, grade ≥ 2, prevalence", "setting": "across all DLs", "result": 22, "unit": "%"}, {"measurement": "Lymphopenia, grade ≥ 2, prevalence", "setting": "across all DLs", "result": 39, "unit": "%"}, {"measurement": "Alanine aminotransferase increased, grade ≥ 2, Total (%)", "setting": "all DLs", "result": "2 (6)"}, {"measurement": "Alkaline phosphatase increased, grade ≥ 2, Total (%)", "setting": "all DLs", "result": "3 (9)"}, {"measurement": "Anorexia, grade ≥ 2, Total (%)", "setting": "all DLs", "result": "2 (6)"}, {"measurement": "Aspartate aminotransferase increased, grade ≥ 2, Total (%)", "setting": "all DLs", "result": "2 (6)"}, {"measurement": "Blood bilirubin increased, grade ≥ 2, Total (%)", "setting": "all DLs", "result": "2 (6)"}, {"measurement": "Constipation, grade ≥ 2, Total (%)", "setting": "all DLs", "result": "1 (3)"}, {"measurement": "Creatinine increased, grade ≥ 2, Total (%)", "setting": "all DLs", "result": "5 (14)"}, {"measurement": "Dehydration, grade ≥ 2, Total (%)", "setting": "all DLs", "result": "4 (11)"}, {"measurement": "Diarrhea, grade ≥ 2, Total (%)", "setting": "all DLs", "result": "1 (3)"}, {"measurement": "Dry skin, grade ≥ 2, Total (%)", "setting": "all DLs", "result": "1 (3)"}, {"measurement": "Edema - limbs, grade ≥ 2, Total (%)", "setting": "all DLs", "result": "1 (3)"}, {"measurement": "Febrile Neutropenia, grade ≥ 2, Total (%)", "setting": "all DLs", "result": "1 (3)"}, {"measurement": "GGT increased, grade ≥ 2, Total (%)", "setting": "all DLs", "result": "6 (17)"}, {"measurement": "Hyperglycemia, grade ≥ 2, Total (%)", "setting": "all DLs", "result": "1 (3)"}, {"measurement": "Hypoalbuminemia, grade ≥ 2, Total (%)", "setting": "all DLs", "result": "1 (3)"}, {"measurement": "Hypokalemia, grade ≥ 2, Total (%)", "setting": "all DLs", "result": "2 (6)"}, {"measurement": "Hypomagnesemia, grade ≥ 2, Total (%)", "setting": "all DLs", "result": "2 (6)"}, {"measurement": "Hyponatremia, grade ≥ 2, Total (%)", "setting": "all DLs", "result": "1 (3)"}, {"measurement": "Hypophosphatemia, grade ≥ 2, Total (%)", "setting": "all DLs", "result": "6 (17)"}, {"measurement": "Hypothyroidism, grade ≥ 2, Total (%)", "setting": "all DLs", "result": "1 (3)"}, {"measurement": "Hypoxia, grade ≥ 2, Total (%)", "setting": "all DLs", "result": "1 (3)"}, {"measurement": "INR increased, grade ≥ 2, Total (%)", "setting": "all DLs", "result": "1 (3)"}, {"measurement": "Infections and infestations - NOS, grade ≥ 2, Total (%)", "setting": "all DLs", "result": "2 (6)"}, {"measurement": "Infusion site extravasation, grade ≥ 2, Total (%)", "setting": "all DLs", "result": "1 (3)"}, {"measurement": "Leukopenia (White blood cell count decreased), grade ≥ 2, Total (%)", "setting": "all DLs", "result": "5 (14)"}, {"measurement": "Nausea, grade ≥ 2, Total (%)", "setting": "all DLs", "result": "6 (17)"}, {"measurement": "Neutropenia, grade ≥ 2, Total (%)", "setting": "all DLs", "result": "5 (14)"}, {"measurement": "Pain - biopsy site, grade ≥ 2, Total (%)", "setting": "all DLs", "result": "1 (3)"}, {"measurement": "Platelet count decreased, grade ≥ 2, Total (%)", "setting": "all DLs", "result": "2 (6)"}, {"measurement": "Proteinuria, grade ≥ 2, Total (%)", "setting": "all DLs", "result": "2 (6)"}, {"measurement": "Sudden death - NOS, Total (%)", "setting": "all DLs", "result": "1 (3)"}, {"measurement": "Thrombophlebitis - superficial, grade ≥ 2, Total (%)", "setting": "all DLs", "result": "1 (3)"}, {"measurement": "Urinary tract infection, grade ≥ 2, Total (%)", "setting": "all DLs", "result": "1 (3)"}, {"measurement": "Vomiting, grade ≥ 2, Total (%)", "setting": "all DLs", "result": "6 (17)"}, {"measurement": "Weight loss, grade ≥ 2, Total (%)", "setting": "all DLs", "result": "4 (11)"}, {"measurement": "White blood cell count increased, grade ≥ 2, Total (%)", "setting": "all DLs", "result": "1 (3)"}, {"measurement": "Anemia, grade ≥ 2, Total (%)", "setting": "[1]", "result": "13 (37) and 13 (36)"}, {"measurement": "Fatigue, grade ≥ 2, Total (%)", "setting": "[1]", "result": "8 (23) and 8 (22)"}, {"measurement": "Patients requiring dose reductions", "setting": "enrolled at DL6 (n = 6) or DL7 (n = 5)", "result": "Eleven"}, {"measurement": "Alanine aminotransferase increased, patients", "setting": "grade 2, DL1-DL5", "result": 1}, {"measurement": "Alkaline phosphatase increased, patients", "setting": "grade 2, DL1-DL5", "result": 1}, {"measurement": "Anemia, patients", "setting": "grade 2, DL1-DL5", "result": 2}, {"measurement": "Edema - limbs, patients", "setting": "grade 2, DL1-DL5", "result": 1}, {"measurement": "GGT increased, patients", "setting": "grade 2, DL1-DL5", "result": 1}, {"measurement": "Hypophosphatemia, patients", "setting": "grade 2, DL1-DL5", "result": 1}, {"measurement": "Proteinuria, patients", "setting": "grade 2, DL1-DL5", "result": 1}, {"measurement": "Vomiting, patients", "setting": "grade 2, DL1-DL5", "result": 1}, {"measurement": "Lymphopenia (Lymphocyte count decreased), patients", "setting": "grade 2, DL1-DL5 (n = 7)", "result": 1}, {"measurement": "Alanine aminotransferase increased, patients", "setting": "grade 2, DL6", "result": 1}, {"measurement": "Alkaline phosphatase increased, patients", "setting": "grade 2, DL6", "result": 1}, {"measurement": "Anemia, patients", "setting": "grade 2, DL6", "result": 4}, {"measurement": "Anorexia, patients", "setting": "grade 2, DL6", "result": 1}, {"measurement": "Aspartate aminotransferase increased, patients", "setting": "grade 2, DL6", "result": 1}, {"measurement": "Blood bilirubin increased, patients", "setting": "grade 2, DL6", "result": 1}, {"measurement": "Constipation, patients", "setting": "grade 2, DL6", "result": 1}, {"measurement": "Creatinine increased, patients", "setting": "grade 2, DL6", "result": 3}, {"measurement": "Dehydration, patients", "setting": "grade 2, DL6", "result": 1}, {"measurement": "Diarrhea, patients", "setting": "grade 2, DL6", "result": 1}, {"measurement": "Dry skin, patients", "setting": "grade 2, DL6", "result": 1}, {"measurement": "Fatigue, patients", "setting": "grade 2, DL6", "result": 6}, {"measurement": "GGT increased, patients", "setting": "grade 2, DL6", "result": 3}, {"measurement": "Hyperglycemia, patients", "setting": "grade 2, DL6", "result": 1}, {"measurement": "Hypoalbuminemia, patients", "setting": "grade 2, DL6", "result": 1}, {"measurement": "Hypomagnesemia, patients", "setting": "grade 2, DL6", "result": 1}, {"measurement": "Hyponatremia, patients", "setting": "grade 2, DL6", "result": 1}, {"measurement": "Hypophosphatemia, patients", "setting": "grade 2, DL6", "result": 4}, {"measurement": "Hypothyroidism, patients", "setting": "grade 2, DL6", "result": 1}, {"measurement": "Infections and infestations - NOS, patients", "setting": "grade 2, DL6", "result": 2}, {"measurement": "Infusion site extravasation, patients", "setting": "grade 2, DL6", "result": 1}, {"measurement": "Leukopenia (White blood cell count decreased), patients", "setting": "grade 2, DL6", "result": 3}, {"measurement": "Nausea, patients", "setting": "grade 2, DL6", "result": 3}, {"measurement": "Neutropenia, patients", "setting": "grade 2, DL6", "result": 3}, {"measurement": "Pain - biopsy site, patients", "setting": "grade 2, DL6", "result": 1}, {"measurement": "Platelet count decreased, patients", "setting": "grade 2, DL6", "result": 1}, {"measurement": "Proteinuria, patients", "setting": "grade 2, DL6", "result": 1}, {"measurement": "Thrombophlebitis - superficial, patients", "setting": "grade 2, DL6", "result": 1}, {"measurement": "Urinary tract infection, patients", "setting": "grade 2, DL6", "result": 1}, {"measurement": "Vomiting, patients", "setting": "grade 2, DL6", "result": 4}]}]}
